Patent US20240158348A1, “HERBICIDAL CYCLIC AMIDES N-SUBSTITUTED WITH A HALOALKYLSULFONYLANILIDE GROUP” (FMC Corporation, priority 2021, published 2024)

Columns and labels:
[1] = system: foxtail, giant (giant foxtail, Setaria faberi); experiment: Test A postemergence, giant foxtail; format: in vivo; conditions: post-emergence, 240 h, 0 to 100 scale, 10 days, read-out: Plant response rating, Foxtail, Giant
Excerpt: (§1) Seeds of plant species selected from barnyardgrass (Echinochloa crus-galli), blackgrass (Alopecurus myosuroides), corn (Zea mays), foxtail, giant (giant foxtail, Setaria faberi), goosegrass (Eleusine indica), kochia (Bassia scoparia), oat, wild (wild oat, Avena fatua), pigweed, palmer (palmer amaranth, Amaranthus palmeri), pigweed, redroot (redroot pigweed, Amaranthus retroflexus), ragweed (common ragweed, Ambrosia artemisiifolia), ryegrass, Italian (Italian ryegrass, Lolium multiflorum), soybean (Glycine max), and wheat (Triticum aestivum) were planted into a blend of loam soil and sand and treated preemergence with a directed soil spray using test chemicals formulated in a non-phytotoxic solvent mixture which included a surfactant.
(§2) At the same time, plants selected from these crop and weed species and also galium (catchweed bedstraw, Galium aparine) and horseweed (Erigeron canadensis) were planted in pots containing the same blend of loam soil and sand and treated with postemergence applications of test chemicals formulated in the same manner. Plants ranged in height from 2 to 10 cm and were in the one- to two-leaf stage for the postemergence treatment. Treated plants and untreated controls were maintained in a greenhouse for 10 days, after which time all treated plants were compared to untreated controls and visually evaluated for injury. Plant response ratings, summarized in Table A, are based on a 0 to 100 scale where 0 is no effect and 100 is complete control. A dash (-) response means no test result.

[2] = system: oat, wild (wild oat, Avena fatua); experiment: Test A preemergence, wild oat; format: in vivo; conditions: 0 to 100 scale, 10 days
Excerpt: as §1, §2

[3] = system: ragweed (common ragweed, Ambrosia artemisiifolia); experiment: Test A postemergence, ragweed; format: in vivo; conditions: post-emergence, 240 h, 0 to 100 scale, 10 days, read-out: Plant response rating, Ragweed
Excerpt: as §1, §2

corn (Zea mays) = experiment: Test A preemergence, corn; format: in vivo; conditions: 0 to 100 scale, 10 days
Excerpt: as §1, §2

rice (Oryza sativa) = experiment: Test B flooded paddy test, rice; format: in vivo; conditions: 250 g ai/ha, Flood, scale of 0 to 100 where 0 is no effect and 100 is complete control, visually evaluated after 10 to 14 days, read-out: Plant response rating, Rice
Protocol: (§3) Plant species in the flooded paddy test selected from barnyardgrass (Echinochloa crusgalli), ducksalad (Heteranthera limosa), rice (Oryza sativa), and sedge, umbrella (small-flower umbrella sedge, Cyperus difformis) were grown to the 2-leaf stage for testing. At time of treatment, test pots were flooded to 3 cm above the soil surface, treated by application of test compounds directly to the paddy water, and then maintained at that water depth for the duration of the test. Treated plants and controls were maintained in a greenhouse for 10 to 14 days, after which time all species were compared to controls and visually evaluated. Plant response ratings, summarized in Table B, are based on a scale of 0 to 100 where 0 is no effect and 100 is complete control. A dash (-) response means no test result.

[4] = system: ryegrass, Italian (Italian ryegrass, Lolium multiflorum); experiment: Test A preemergence, Italian ryegrass; format: in vivo; conditions: pre-emergence, 240 h, 0 to 100 scale, 10 days, read-out: Plant response rating, Ryegrass, Italian
Excerpt: as §1, §2

kochia (Bassia scoparia) = experiment: Test A preemergence, kochia; format: in vivo; conditions: pre-emergence, 240 h, 0 to 100 scale, 10 days, read-out: Plant response rating, Kochia
Excerpt: as §1, §2

[5] = system: ducksalad (Heteranthera limosa); experiment: Test B flooded paddy test, ducksalad; format: in vivo; conditions: 250 g ai/ha, Flood, scale of 0 to 100 where 0 is no effect and 100 is complete control, visually evaluated after 10 to 14 days, read-out: Plant response rating, Ducksalad
Protocol: as §3

[6] = system: galium (catchweed bedstraw, Galium aparine); experiment: Test A postemergence, galium; format: in vivo; conditions: post-emergence, 240 h, 0 to 100 scale, 10 days, read-out: Plant response rating, Galium
Excerpt: as §1, §2

[7] = system: sedge, umbrella (small-flower umbrella sedge, Cyperus difformis); experiment: Test B flooded paddy test, umbrella sedge; format: in vivo; conditions: 250 g ai/ha, Flood, scale of 0 to 100 where 0 is no effect and 100 is complete control, visually evaluated after 10 to 14 days, read-out: Plant response rating, Sedge, Umbrella
Protocol: as §3

[8] = system: barnyardgrass (Echinochloa crusgalli); experiment: Test B flooded paddy test, barnyardgrass; format: in vivo; conditions: Echinochloa crus-galli; 250 g ai/ha, Flood; scale of 0 to 100 where 0 is no effect and 100 is complete control; visually evaluated after 10 to 14 days; read-out: Plant response rating, Barnyardgrass
Protocol: as §3

In the case of `Cc1cc(C)c(N2CCC(OC3CCC3)C2=O)cc1NS(=O)(=O)C(F)(F)F` (stereo not shown) [Compound 4, N-[5-[3-(cyclobutyloxy)-2-oxo-1-pyrrolidinyl]-2,4-dimethylphenyl]-1,1,1-trifluoromethanesulfonamide], the pest or weed control at 31 g/ha ([1]; 31 g ai/ha) is reported as 40%, the pest or weed control at 125 g/ha ([1]; 125 g ai/ha) is reported as 80% and the “Plant response rating, Oat, Wild” value ([2]; 31 g ai/ha) is reported as 80. For the same molecule, the “Plant response rating, Oat, Wild” value ([2]; 125 g ai/ha) was 100, the pest or weed control at 31 g/ha ([3]; 31 g ai/ha) was 70% and the pest or weed control at 125 g/ha ([3]; 125 g ai/ha) was 90%. For the same molecule, the “Plant response rating, Corn” value (corn (Zea mays); 31 g ai/ha) was 40, the “Plant response rating, Corn” value (corn (Zea mays); 125 g ai/ha) was 90 and the plant injury at 250 g/ha (rice (Oryza sativa)) was 0%. The pest or weed control at 31 g/ha ([4]; 31 g ai/ha) was 100%, the pest or weed control at 125 g/ha ([4]; 125 g ai/ha) was 100% and the pest or weed control at 31 g/ha (kochia (Bassia scoparia); 31 g ai/ha) was 70%. It also gave a pest or weed control at 125 g/ha (kochia (Bassia scoparia); 125 g ai/ha) of 100%, a melting point of 166 to 169 °C and a pest or weed control at 250 g/ha [5] of 100%. For the same molecule, the pest or weed control at 31 g/ha ([6]; 31 g ai/ha) was 100%, the pest or weed control at 125 g/ha ([6]; 125 g ai/ha) was 100% and the pest or weed control at 250 g/ha [7] was 100%. For the same molecule, the pest or weed control at 250 g/ha [8] was 45%.
